Consider five molecules from patent publication US5688946A, “Amino acid derivatives having renin inhibiting activity” (Hoffmann La Roche Inc., priority 1989, dated 1997).

The term IC50 denotes the midpoint of a concentration-inhibition curve. High values mean lower potency, low ones higher potency.

Structures can show the parent of a compound that is named as a salt.

In the test the target is T1, human renin (Homo sapiens, UniProt P00797).
T1 sequence (P00797 67-406): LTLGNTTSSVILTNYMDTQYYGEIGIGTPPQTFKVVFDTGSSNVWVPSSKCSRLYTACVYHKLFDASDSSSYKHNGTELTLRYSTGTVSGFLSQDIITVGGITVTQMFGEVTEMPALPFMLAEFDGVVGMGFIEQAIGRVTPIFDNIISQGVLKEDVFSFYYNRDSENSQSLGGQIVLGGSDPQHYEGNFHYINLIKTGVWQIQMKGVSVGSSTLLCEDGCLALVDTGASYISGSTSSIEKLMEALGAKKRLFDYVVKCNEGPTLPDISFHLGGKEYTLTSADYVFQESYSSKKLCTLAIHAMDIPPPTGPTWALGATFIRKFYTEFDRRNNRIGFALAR
Briefly: In vitro test with pure human renin. The format is biochemical. Particulars: human tetradecapeptide renin substrate (hTD), pH 7.4, three hours at 37° C., angiotensin I via RIA. How it is done: In vitro test with pure human renin
The test is carried out in Eppendorf test tubes. The incubation mixture consists of (1) 100 μl of human renin in buffer A (0.1M sodium phosphate solution, pH 7.4, containing 0.1% bovine serum albumin, 0.1% sodium azide and 1 mM ethylenediaminetetraacetic acid), sufficient for a renin activity of 2-3 ng of angiotensin I/ml/hr.; (2) 145 μl of buffer A; (3) 30 μl of 10 μM human tetradecapeptide renin substrate (hTD) in 10 mM hydrochloric acid; (4) 15 μl of dimethyl sulphoxide with or without inhibitor and (5) 10 μl of a 0.03 molar solution of hydroxyquinoline sulphate in water.
The samples are incubated for three hours at 37° C. or 4° C. in triplicate. 2×100 μl samples per experimental test tube are used in order to measure the production of angiotensin I via RIA (standard radioimmunoassay; clinical assay solid phase kit). Cross reactivities of the antibody used in the RIA are: angiotensin I 100%; angiotensin II 0.0013%; hTD (angiotensin I-Val-Ile-His-Ser-OH) 0.09%. The production of angiotensin I is determined by the difference between the experiment at 37° C. and that at 4° C.
The following controls are carried out:
(a) Incubation of hTD samples without renin and without inhibitor at 37° C. and 4° C. The difference between these two values gives the base value of the angiotensin I production.
(b) Incubation of hTD samples with renin, but without inhibitor at 37° C. and 4° C. The difference between these values gives the maximal value of angiotensin I production.
In each sample the base value of the angiotensin I production is subtracted from the angiotensin I production which is determined. The difference between the maximal value and the base value gives the value of the maximal substrate hydrolysis (=100%) by renin.
The results are given as IC50 values which denote that concentration of the inhibitor at which the enzymatic activity is inhibited by 50%. The IC50 values are determined from a linear regression curve from a logit-log plot.
In turn, `CC(C)(CN)S(=O)(=O)C[C@@H](Cc1ccccc1)C(=O)N[C@@H](Cc1c[nH]cn1)C(=O)N[C@@H](CC1CCCCC1)[C@@H](O)[C@@H](O)C1CC1` [A, (S)-α-[(S)-α-[[[(2-Amino-1,1-dimethylethyl)sulphonyl]methyl]hydrocinnamamido]-N-[(1S,2R,3S)-1-(cyclohexylmethyl)-3-cyclopropyl-2,3-dihydroxypropyl]imidazole-4-propionamidedihydrochloride] returned an IC50 of 1.8 nM. In the case of `O=C(N[C@@H](Cc1c[nH]cn1)C(=O)N[C@@H](CC1CCCCC1)[C@@H](O)[C@@H](O)C1CC1)c1cc2ccccc2[nH]1` [F, N-[(S)-1-[[(1S,2R,3S)-1-(Cyclohexylmethyl)-3-cyclopropyl-2,3-dihydroxypropyl]carbamoyl]-2-imidazol-4-ylethyl]indole-2-carboxamide] it was 21 nM; in that of `CC(C)(N)CS(=O)(=O)C[C@@H](Cc1ccccc1)C(=O)N[C@@H](Cc1c[nH]cn1)C(=O)N[C@@H](CC1CCCCC1)[C@@H](O)[C@@H](O)C1CC1` [B, (S)-α-[(S)-α-[[(2-Amino-2-methylpropyl)sulphonyl]methyl]hydrocinnamamido]-N-[(1S,2R,3S)-1-(cyclohexylmethyl)-3-cyclopropyl-2,3-dihydroxypropyl]imidazole-4-propionamide diacetate], 17 nM; in that of `O=C(N[C@@H](CC1CCCCC1)[C@@H](O)[C@@H](O)C1CC1)[C@H](Cc1c[nH]cn1)NC(=O)[C@H](Cc1ccccc1)OC(=O)N1CCCCC1` [D, (S)-α-[[(S)-1-[[(1S,2R,3S)-1-(Cyclohexylmethyl)-3-cyclopropyl-2,3-dihydroxypropyl]carbamoyl]-2-imidazol-4-ylethyl]carbamoyl]phenethyl 1-piperidinecarboxylate], 1.2 nM. For `CC(C)(C)S(=O)(=O)C[C@@H](Cc1ccccc1)C(=O)N[C@@H](Cc1c[nH]cn1)C(=O)N[C@@H](CC1CCCCC1)[C@@H](O)[C@@H](F)C1CC1` [E, (S)-α-[(S)-α-[(tert-Butylsulphonyl)methyl]hydrocinnamamido]-N-[(1S,2R,3S)-1-(cyclohexylmethyl)-3-cyclopropyl-3-fluoro-2-hydroxypropyl]imidazole-4-propionamide], inhibition was half-maximal at 2.3 nM (IC50).
